Molecules are shown by their SMILES.

Here are results for three molecules from patent US20220411397A1, “ANALOGUES OF N-ACYL-HOMOSERINE LACTONES AND PHARMACEUTICAL COMPOSITION COMPRISING SAME” (SORBONNE UNIVERSITE, priority 2019, published 2022).

In one data set the test system is E. coli K12 strain. Kind of data set: Bactericidal dosage on the E. coli K12 strain (absorbance at 600 nm). It is filed as cell-based. Particulars: all concentrations, maximum 100 μM shown; 18 h. On the procedure:
1.1.4. Bactericidal Dosage • The K12 strain of E. coli was grown on agar on day 0 and a colony was transferred to the LYBHI liquid bacterial culture medium on day 1. On day 2, the colony was diluted 1:100 in LYBHI medium and amplified for 18 hours before transfer to an opaque 96-well plate. In each well, LYBHI, controls or increasing doses of tested molecules and bacteria were distributed. The absorbance at 600 nm was read at start-up (t=0) and after an 18-hour incubation. The raw absorbance values were corrected using the absorbance of solutions without bacteria. All experiments were performed twice, each with 4 replicates.
The E. coli K12 strain was cultured at D0 on agar gel, and then a selected colony was transferred to a liquid bacterial culture LYBHI medium at D1. At day 2, this colony was diluted 1:100 in LYBHI medium, and maintained for 18 hours for expansion before distribution in an opaque 96-well plate. In each well were distributed: LYBHI medium, bacterial culture, and test or control compounds. The absorbance of the wells was read at 600 nm at t0 and t18h. The raw absorbance values were corrected against the absorbance of the wells containing only LYBHI medium without bacteria or compounds.

Data set [1] can be described thus: Resistance to hydrolysis giving the open form. It is filed as physicochemical.
The test system of a further data set is human lymphocytes. Briefly: Inhibition of IL-2 secretion by human lymphocytes stimulated by CD2, CD3 and CD28. It is filed as cell-based. Particulars: lymphocytes stimulated by CD2, CD3 and CD28.
A further data set deals with Caco-2/TC7 cells. Briefly: Cytotoxicity test, LDH secretion, Caco-2/TC7. Particulars: for cytotoxicity (LDH), Caco-2/TC7: stimulated, low concentrations; for LDH secretion at the higher concentrations: ≥50 μM. It is filed as cell-based. As for the experimental part: (§1) 1.2.6. […] To measure the concentration of LDH in the cell lysate, 800 μL of NADH was added to 10 μL of […] and 190 μL of 0.1 M PBS in a plastic cuvette, and the decrease in the absorbance at 340 nm was monitored for 1 min. […] The percentage of cytotoxicity could be established with the formula: […]
(§2) The cytotoxicity of the tested and control compounds was evaluated using a measurement test of the LDH (Lactate Dehydrogenase) secretion. This test is based on the measurement of the amount of LDH secreted by the cells in their supernatant, compared to the amount of LDH that will remain in the intracellular compartment. This ratio provides an indication of the membrane damage suffered by the cells, and thus of the cytotoxicity of the compound.
(§3) Two methods were used to perform this test: the measurement using an extemporaneously prepared pyruvate/NADH solution, or using the Cytotoxicity Detection Kit^PLUS(LDH) from the manufacturer Roche (Sigma-Aldrich).
(§4) Pyruvate/NADH method: pyruvate/NADH solution prepared with 4.1 mg pyruvic acid (0.62 mM) and 7.7 mg NADH (0.18 mM) in 60 ml of 0.1M PBS (pH 7.4).
(§5) For the measurement of the LDH concentration in the supernatants, 800 μL of NADH was added to 200 μL of supernatant in plastic spectrometry cuvettes, and the decrease in absorbance of the final solution was read at 340 nm for 1 min. For the measurement of the LDH concentration in the cell lysates, 800 μL of NADH was added to 10 μL of cell lysates and 190 μL of 0.1M PBS in plastic spectrometry cuvettes, and the decrease in absorbance of the final solution was read at 340 nm for 1 min. The percentage of LDH secreted was then calculated by the ratio of the decay slopes of the absorbance of the supernatants and of the cell lysates (respectively).
(§6) Cytotoxicity Detection Kit^PLUS (LDH) method: absorbance test performed according to the manufacturer's instructions. The percentage of LDH secreted was then calculated by the formula: […]

For another data set, the system named is human keratinocytes. Briefly: Inhibition of IL-8 secretion by human keratinocytes stimulated by IL-17 and TNF-α. It is filed as cell-based. Particulars: keratinocytes stimulated by IL-17 and TNF-α.
A further data set relates to Raw264.7 murine cells. Briefly: Cytotoxicity test, LDH secretion, Raw264.7. It is filed as cell-based. Particulars: for cytotoxicity (LDH), Raw264.7: stimulated, low concentrations. As for the experimental part: as §1, §2, §3, §4, §5, §6
Another data set addresses T1, LasR receptor (Pseudomonas aeruginosa, UniProt P25084).
T1 construct: expressed in transfected cells; host or cells: Escherichia coli carrying plasmid pSB1075
Briefly: Activation of the LasR receptor on bacterial reporter strain E. coli pSB1075 (bioluminescence). It is filed as cell-based. The source says: 1.1.3. The Bacterial Reporter Strain E. coli pSB1075 • A bacterial reporter strain of the Quorum Sensing was used to study the ability of the molecules to be recognized by the Pseudomonas aeruginosa AHL receptor (LasR) and induce an activation. […] This bioluminescent strain was modified by addition of a plasmid pSB1075. This plasmid contains genes encoding both tetracycline resistance and the expression of the LasR AHL receptor from the Pseudomonas aeruginosa bacteria, as well as a fusion gene derived from the LasR promoter and the luxCDABE gene from Photorhabdus luminescence. The bacterial strain was grown in the LB medium supplemented with 5 μg/ml tetracycline to exert a selection pressure and ensure that only the desired strain was amplified. The fusion gene included in the plasmid gives the bacteria the ability to emit a bioluminescence when the LasR receptor is activated, and provides the user with a robust test for the molecular screening. […] On day 1, the culture was diluted 1:100 (P1) in 10 ml of LB medium supplemented with 5 μg/ml tetracycline and maintained for 24 hours at 37° C. under stirring at 70 rpm. On day 2, the experiment took place: a bacterial suspension extemporaneously diluted 1:10 in LB medium supplemented with 5 μg/ml tetracycline (P2) was dispensed into a black opaque 96-well plate and incubated for 4 hours with a range of AHL concentrations or controls until the resulting luminescence was read at the end point. All experiments were performed in triplicates.
1.3. […] This bioluminescent strain was developed by the addition of a plasmid pSB1075 containing genes encoding the tetracycline resistance and the expression of the LasR AHL receptor, as well as a fusion gene of the LasR promoter and the luxCDABE gene of Photorhabdus luminescence. • On day 1, a 1/100 dilution of the bacterial strain (P1) was grown for 24 hours at 37° C. under stirring (70 rpm) in a LB medium containing 5 μg/ml tetracycline (pressure selective). On day 2, P1 was diluted 1:10 in the same medium to obtain P2. In a black 96-well plate were placed 200 μL of P2 and 10 μL of the short chain compound (medium, water and DMSO for the negative controls, C4-HSL as positive control, and the test sample at the desired concentration). The plate was incubated for 4 hours at 37° C. under stirring at 70 rpm. […] After that, the incubation was continued according to the conventional protocol, with the test compound at the desired concentrations.

[2] abbreviates: any of the concentrations tested.

T1 sequence (P25084 whole entry): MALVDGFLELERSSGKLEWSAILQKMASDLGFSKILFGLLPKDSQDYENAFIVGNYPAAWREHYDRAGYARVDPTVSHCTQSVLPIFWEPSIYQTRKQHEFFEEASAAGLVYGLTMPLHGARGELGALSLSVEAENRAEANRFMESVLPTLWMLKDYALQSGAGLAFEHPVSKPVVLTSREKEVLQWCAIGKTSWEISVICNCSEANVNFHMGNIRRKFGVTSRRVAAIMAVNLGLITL

Consider `CCCCCCCCCC(=O)CC(=O)N[C@H]1CCCC[C@@H]1O` [I-2, N-[(1S,2S)-2-hydroxycyclohexyl]-3-oxo-dodecanamide], for which the “comparative survival of E. coli K12” value in the data set on E. coli K12 strain was “No significant differences”. In addition, the “resistance to hydrolysis (enzymatic and spontaneous)” value in data set [1] is “resistant to the hydrolysis giving an open form (both enzymatic and spontaneous)”. Besides, the EC50 (in general, the concentration at which the effect is half-maximal) was 89.9 nM with human lymphocytes (Homo sapiens, Lymphocyte, read-out: relative EC50, inhibition of IL-2 secretion); 111 nM with human keratinocytes (Homo sapiens, Keratinocyte, read-out: relative EC50, inhibition of IL-8 secretion); 0.165 µM on LasR receptor. Further, the figures for the “maximum inhibition as % of the inhibition obtained with the reference compound betamethasone” value in the data set on human lymphocytes (IL-2 secretion) and in the data set on human keratinocytes (IL-8 secretion) were 46% and 39%, respectively. For the same molecule, the “cytotoxicity (LDH), Caco-2/TC7” value in the data set with Caco-2/TC7 cells was “not cytotoxic at low concentrations”. Besides, the “LDH secretion at the higher concentrations” value in the data set on Caco-2/TC7 cells is “not as significant”. Moreover, the “cytotoxicity (LDH), Raw264.7” value with Raw264.7 murine cells is “not cytotoxic at low concentrations”.

For `CCCCCCCCCC(=O)CC(=O)N[C@H]1CCCC[C@H]1O` [I-4, N-[(1S,2R)-2-hydroxycyclohexyl]-3-oxo-dodecanamide], the “comparative survival of E. coli K12” value in the data set with E. coli K12 strain was “No significant differences”. For the same molecule, the LDH secretion in the data set on Caco-2/TC7 cells (Caco-2/TC7, at 100 μM) is reported as 9%. Also, in the data set with Caco-2/TC7 cells, the “cytotoxicity (LDH), Caco-2/TC7” value was “not cytotoxic at low concentrations” and the “LDH secretion at the higher concentrations” value was “an increase in LDH secretion”. Further, in the data set on Raw264.7 murine cells (at 50 μM), the “toxicity (LDH), Raw264.7” value is recorded as “toxic”. Also, the “LDH secreted compared with the diastereomer, Raw264.7” value in the data set on Raw264.7 murine cells (at all concentrations) is reported as “greater than that secreted in the presence of (S,S)-3oxoC12-ACH”. In addition, the “cytotoxicity (LDH), Raw264.7” value with Raw264.7 murine cells is “not cytotoxic at low concentrations”. A half-maximal response at LasR receptor (EC50) required 200 µM.

For `CCCCCCCCCC(=O)CC(=O)Nc1cc(Cl)ccc1O` [I-6, N-(5-chloro-2-hydroxyphenyl)-3-oxododecanamide], the “comparative survival of E. coli K12” value with E. coli K12 strain is reported as “No significant differences”. Also, the “toxicity (LDH), Caco-2/TC7” value with Caco-2/TC7 cells (setting [2]) is recorded as “not toxic”. In addition, the “toxicity (LDH), Raw264.7” value in the data set on Raw264.7 murine cells (setting [2]) is listed as “not toxic”. Further, the EC50 on LasR receptor was greater than 1000 µM.
